Results as given in patent publication US9421204B2, “Oligomer modified diaromatic substituted compounds” (priority 2010, dated 2016).
Several values for one entry are separate records, joined by “and”; a condition that tells them apart may be missing. Identical values can stand only once. Like-named read-outs stand apart in the source and are kept apart here. Each block holds one compound with its values, some of them ahead of it.

How the values were obtained:
in vitro [1] = settings: human; for Papp A→B: Caco-2, (A-to-B) Papp; for Papp B→A: Caco-2, (B-to-A) Papp; for efflux ratio: Caco-2, Efflux Ratio
Method: The objective of this study was to determine the bidirectional Caco-2 permeability of test compounds. Caco-2 monolayers were grown to confluence on collagen-coated, microporous, polycarbonate membranes in 12-well Costar Transwell® plates. Details of the plates and their certification are shown below. The permeability assay buffer for the donor chambers was Hanks Balanced Salt Solution containing 10 mM HEPES and 15 mM glucose (HBSSg) at a pH of 7.4. The buffer in the receiver chambers also contained 1% bovine serum albumin (BSA). The dosing solution concentrations were 10 μM in the assay buffer. Cell monolayers were dosed on the apical side (A to-B) or basolateral side (B-to-A) and incubated at 37° C. with 5% CO2 in a humidified incubator. After 2 hours, aliquots were taken from the receiver and donor chambers. Each determination was performed in duplicate. The lucifer yellow flux was also measured for each monolayer to ensure no damage was inflicted to the cell monolayers during the flux period. All samples were assayed by LC/MS/MS using electrospray ionization.

in vitro [2] = format: in vitro ADME; settings: human
Method: Each determination was performed in duplicate.
Vr is the volume of the receiver compartment in cm^3.
Vd is the volume of the donor compartment in cm^3.
A is the area of the cell monolayer (1.13 cm^2 for 12-well Transwell®).
CN is the nominal dosing concentration of the dosing solution in μM.
CA is the average of the nominal dosing concentration and the measured 120 minute donor concentration in μM.
Cr^final is the receiver concentration in μM at the end of the incubation period.
Cd^final is the concentration of the donor in μM at the end of the incubation period.

Wild Type RT = Wild Type RT (Human immunodeficiency virus type 1 group M subtype B, UniProt P04585); experiment: HIV-1 Reverse Transcriptase Inhibition Assay; format: biochemical; settings: Wild Type RT IC50
Method: The following materials were removed from the freezer and were stored on wet ice (dGTP, ^32P, purified enzyme extract, rCdG, dGTP, DNA). Test compounds were evaluated at a high test of 100 μM diluted in dH2O and if the stock solution was turbid, 1:1000 Triton-X was added to the stock solution. Thirty microliters (30 μL) of each dilution was then transferred in duplicate to the appropriate well of a 96-well plate. The positive and negative control wells each received 30 μL of dH2O instead of the compound. A 2× buffer was prepared in the following manner: 125 μL 2M Tris pH 8.0, 250 μL 3M KCl, 80 μL 1 M MgC12, 10 μL 2 M DTT, 40 μL 25 U/mL rCdG, 100 μL 1 mM dGTP, 10 μL 800 Ci/mMol alpha ^32P:dG TP, and 4.4 mL dH2O. Fifty microliters (50 μL) of 2× buffer was added to every well of the plate. BSA was diluted 1:100 and Triton-X 1:1000 in dH2O and the enzyme was added to the mixture at a 1:400 dilution. Twenty microliters (20 μL) of the enzyme solution was added to all of the wells of the plate except the negative control wells. Distilled water was used instead of enzyme in these wells. The plate was incubated at 37° C. for 30 minutes. Following incubation, 10 μL of 10 mg/mL DNA (MB-grade fish sperm) was added to each well, followed by 150 μL of cold 10% TCA in each well. The plate was incubated at room temperature for approximately 15 minutes in order to allow for precipitation of the samples. Following the incubation the contents were transferred to the appropriate filter plate. The plate was placed on the vacuum manifold and pushed firmly to induce suction. Wells were rinsed with 200 μL of cold TCA. Again, the plate was pushed down firmly and vacuum suction was applied. Once all of the liquid was aspirated from the filter plate, it was removed from the manifold and residual liquid was blotted from the bottom of the plastic base. The filtered wells were separated from the plastic base and the wells were blotted on clean, absorbent paper. The filtered wells were pushed into the cassette and a sheet of Millipore multiscreen tape was placed on the bottom of a Wallace Microbeta cassette covering all of the holes. Twenty microliters (20 μL) of Wallace Supermix Scintillant was added to each well and the top of the wells were covered with a sheet of the multiscreen tape. The plate was read on the Wallace MicroBeta counter to measure incorporated ^32P.

[3] = Toxicity XTT in CEM-SS cells (cytoprotection assay); format: cell-based; settings: human, CEM-SS cells, XTT; read-out: CEM-SS TC50
Method: (§1) Cell Preparation—CEM-SS cells were passaged in T-75 flasks prior to use in the antiviral assay. On the day preceding the assay, the cells were split 1:2 to assure they were in an exponential growth phase at the time of infection. Total cell and viability quantification was performed using a hemocytometer and Trypan Blue dye exclusion. Cell viability was greater than 95% for the cells to be utilized in the assay. The cells were resuspended at 5×10^4 cells per ml in tissue culture medium and added to the drug containing microtiter plates in a volume of 50 μL.
(§2) Plate Format—Each plate contains cell control wells (cells only), virus control wells (cells plus virus), drug toxicity wells (cells plus drug only), drug colorimetric control wells (drug only) as well as experimental wells (drug plus cells plus virus). Samples were tested in triplicate with eleven half-log dilutions per compound.
(§3) Efficacy and Toxicity XTT—Following incubation at 37° C. in a 5% CO2 incubator, the test plates were stained with the tetrazolium dye XTT (2,3-bis(2-methoxy-4-nitro-5-sulfophenyl)-5-[(phenylamino)carbonyl]-2H-tetrazolium hydroxide). XTT-tetrazolium is metabolized by the mitochondrial enzymes of metabolically active cells to a soluble formazan product, allowing rapid quantitative analysis of the inhibition of HIV induced cell killing by anti-HIV test substances. XTT solution was prepared daily as a stock of 1 mg/mL in RPMI1640. Phenazine methosulfate (PMS) solution was prepared at 0.15 mg/mL in PBS and stored in the dark at −20° C. XTT/PMS stock was prepared immediately before use by adding 40 μL of PMS per ml of XTT solution. Fifty microliters of XTT/PMS was added to each well of the plate and the plate was re-incubated for 4 hours at 37° C. Plates were sealed with adhesive plate sealers and shaken gently or inverted several times to mix the soluble fosmazan product and the plate was read spectrophotometrically at 450/650 nm with a Molecular Devices Vmax plate reader.
(§4) Data Analysis—Raw data was collected from the Softmax Pro 4.6 software and imported into a Excel XLFit4 spreadsheet for analysis by four parameter curve fit calculations. Both antiviral activity and toxicity are calculated.

HIV-1RF = experiment: Anti-HIV-1 cytoprotection assay in CEM-SS cells; format: cell-based
Method: as §1, with “Cell viability was greater than 95% for the cells to be utilized in the assay.” left out
Virus Preparation—The virus used for the assay was the lymphocyte-tropic virus strain HIV-IRF. The virus was obtained from the NIH AIDS Research and Reference Reagent Program and stock virus pools were produced in CEM-SS cells. A pretitred aliquot of virus was removed from the freezer (−80° C.) and allowed to thaw slowly to room temperature in a biological safety cabinet.
as §2, §3
Anti-HIV-1 Cytopathic Effects Inhibition Assay Evaluations: Eight compounds were evaluated against the RF strain of HIV-1 in CEM-SS cells using a 12 concentration dose response curve.
as §4

NL4-3Y181C = experiment: Anti-HIV cytoprotection assay, drug resistant NL4-3 Y181C; format: cell-based; settings: HIV-1 strain NL4-3Y181C; for EC50: CEM-SS cells
Method: (§5) Cells were prepared as described above. Virus Preparation—The wild type NL4-3 and drug resistant A17 viruses were obtained from the NIH AIDS Research and Reference Reagent Program and stock virus pools were produced in CEM-SS cells. Amino acid substitutes of L100I, Y181C and P23L were introduced by site-directed mutagenesis into pN L4-3 and stock virus pools were produced in CEM-SS cells. A pretitered aliquot of virus was removed from the freezer (−80° C.) and allowed to thaw slowly to room temperature in a biological safety cabinet. Virus was re-suspended and diluted into tissue culture medium such that the amount of virus added to each well in a volume of 50 μL was the amount determined to yield 85 to 95% cell killing at 6 days post-infection.
as §3, with “Plate Format—Each plate contains cell control wells (cells only), virus control wells (cells plus virus), drug toxicity wells (cells plus drug only), drug colorimetric control wells (drug only) as well as experimental wells (drug plus cells plus virus). Samples were tested in triplicate with eleven half-log dilutions per compound. Efficacy” for “Efficacy”, “XTT-tetrazolium was” for “XTT-tetrazolium is”, “C. XTTIPMS” for “C. XTT/PMS”, “soluble formazan” for “soluble fosmazan”
as §4

A17K103N/Y181C = experiment: Anti-HIV cytoprotection assay, drug resistant A17; format: cell-based; settings: Human immunodeficiency virus 1, CEM-SS, HIV-1 strain A17K103N/Y181C, CEM-SS cells
Method: as §5, with “cabinet.” for “cabinet. Virus was re-suspended and diluted into tissue culture medium such that the amount of virus added to each well in a volume of 50 μL was the amount determined to yield 85 to 95% cell killing at 6 days post-infection.”
as §3, with “Plate Format—Each plate contains cell control wells (cells only), virus control wells (cells plus virus), drug toxicity wells (cells plus drug only), drug colorimetric control wells (drug only) as well as experimental wells (drug plus cells plus virus). Samples were tested in triplicate with eleven half-log dilutions per compound. Efficacy” for “Efficacy”, “XTT-tetrazolium was” for “XTT-tetrazolium is”, “C. XTTIPMS” for “C. XTT/PMS”, “soluble formazan” for “soluble fosmazan”
as §4

[4] = Toxicity XTT in CEM-SS cells (drug resistant strain assay); format: cell-based; settings: human, CEM-SS cells, read-out: TC50 (the source's name)
Method: as §5
as §3, with “Plate Format—Each plate contains cell control wells (cells only), virus control wells (cells plus virus), drug toxicity wells (cells plus drug only), drug colorimetric control wells (drug only) as well as experimental wells (drug plus cells plus virus). Samples were tested in triplicate with eleven half-log dilutions per compound. Efficacy” for “Efficacy”, “XTT-tetrazolium was” for “XTT-tetrazolium is”, “C. XTTIPMS” for “C. XTT/PMS”, “soluble formazan” for “soluble fosmazan”
as §4

NL4-3P236L = experiment: Anti-HIV cytoprotection assay, drug resistant NL4-3 P236L; format: cell-based; settings: HIV-1 strain NL4-3P236L; for EC50: CEM-SS cells
Method: as §5
as §3, with “Plate Format—Each plate contains cell control wells (cells only), virus control wells (cells plus virus), drug toxicity wells (cells plus drug only), drug colorimetric control wells (drug only) as well as experimental wells (drug plus cells plus virus). Samples were tested in triplicate with eleven half-log dilutions per compound. Efficacy” for “Efficacy”, “XTT-tetrazolium was” for “XTT-tetrazolium is”, “C. XTTIPMS” for “C. XTT/PMS”, “soluble formazan” for “soluble fosmazan”
as §4

NL4-3L100I = experiment: Anti-HIV cytoprotection assay, drug resistant NL4-3 L100I; format: cell-based; settings: Human immunodeficiency virus 1, CEM-SS, HIV-1 strain NL4-3L100I, CEM-SS cells
Method: as §5
as §3, with “Plate Format—Each plate contains cell control wells (cells only), virus control wells (cells plus virus), drug toxicity wells (cells plus drug only), drug colorimetric control wells (drug only) as well as experimental wells (drug plus cells plus virus). Samples were tested in triplicate with eleven half-log dilutions per compound. Efficacy” for “Efficacy”, “XTT-tetrazolium was” for “XTT-tetrazolium is”, “C. XTTIPMS” for “C. XTT/PMS”, “soluble formazan” for “soluble fosmazan”
as §4

[5] = Human immunodeficiency virus 1, CEM-SS

Papp (in vitro [1]; Caco-2, Papp): 208 nm/s
SMILES: CC(C)NCC(O)COc1cccc2ccccc12 (centres unmarked) [Propranolol]

SMILES: C[C@H]1O[C@@H](O[C@H]2[C@@H](O)C[C@H](O[C@H]3[C@@H](O)C[C@H](O[C@H]4CC[C@@]5(C)[C@H](CC[C@@H]6[C@@H]5C[C@@H](O)[C@]5(C)[C@@H](C7=CC(=O)OC7)CC[C@]65O)C4)O[C@@H]3C)O[C@@H]2C)C[C@H](O)[C@@H]1O [Digoxin]
Papp A→B (in vitro [1]; Test 1, Passage Number 65): 4.7 nm/s | Papp A→B (in vitro [1]; Test 2, Passage Number 59): 6.5 nm/s | Papp A→B (in vitro [1]; Test 2, Passage Number 67): 7.5 nm/s | Papp B→A (in vitro [1]; Test 1, Passage Number 65): 110 nm/s | Papp B→A (in vitro [1]; Test 2, Passage Number 59): 169 nm/s | Papp B→A (in vitro [1]; Test 2, Passage Number 67): 134 nm/s | efflux ratio (in vitro [1]; Test 1, Passage Number 65): 23 | efflux ratio (in vitro [1]; Test 2, Passage Number 59): 26 | efflux ratio (in vitro [1]; Test 2, Passage Number 67): 18

SMILES: COCCOCCOCCNc1ccc2[nH]c(C(=O)N3CCN(c4ncccc4NC(C)C)CC3)cc2c1 [5-mPEG3-NH-Delavirdine]
Papp A→B at 2 hours, 10 μM (in vitro [2]; Caco-2, pH 7.4, Test 2, 10 μM, 2 hours, pH 7.4, read-out: Average Papp, A→B): 333 nm/s | Papp B→A at 2 hours, 10 μM (in vitro [2]; Caco-2, pH 7.4, Test 2, 10 μM, 2 hours, pH 7.4, read-out: Average Papp, B→A): 418 nm/s | recovery at 2 h, 10 μM (in vitro [2]; Caco-2, pH 7.4, Test 2, 10 μM, 2 hours, read-out: Recovery (%) A→B): 94% | recovery at 2 h, 10 μM (in vitro [2]; Caco-2, pH 7.4, Test 2, 10 μM, 2 hours, read-out: Recovery (%) B→A): 96% | efflux ratio at 2 hours, 10 μM (in vitro [2]; Caco-2, pH 7.4, Test 2, read-out: Efflux Ratio (B→A/A→B)): 1.3 | IC50 (Wild Type RT): 1 µM | CC50 [3]: 34.9 µM | Therapeutic Index (HIV-1RF; CEM-SS/HIV-1RF): 212.67 | EC50 (HIV-1RF; Human immunodeficiency virus 1, CEM-SS, CEM-SS cells, XTT, read-out: CEM-SS/HIV-1RF EC50): 0.16 µM

SMILES: Cc1ccnc2c1NC(=O)c1cccnc1N2C1CC1 [Nevirapine, reference compound]
TI (NL4-3Y181C): >1.2 | EC50 (NL4-3Y181C): 8.59 µM | EC50 (NL4-3Y181C; [5]): > 10 µM | EC50 (A17K103N/Y181C): > 10 µM | CC50 ([4]; run with HIV-1 strain A17K103N/Y181C): > 10 µM | CC50 ([4]; run with HIV-1 strain NL4-3): > 10 µM | CC50 ([4]; run with HIV-1 strain NL4-3L100I): > 10 µM | CC50 ([4]; run with HIV-1 strain NL4-3P236L): > 10 µM | CC50 ([4]; run with HIV-1 strain NL4-3Y181C): > 10 µM | TI (NL4-3P236L): >33.3 and >35.7 | EC50 (NL4-3P236L): 0.28 µM | EC50 (NL4-3P236L; [5]): 0.3 µM | EC50 (NL4-3L100I): > 10 µM
